Results as given in US8815874B2, “Pyrazolopyrimidine derivative” (Kyowa Hakko Kirin Co., Ltd., priority 2010, dated 2014).

Tested on: Dinitrofluorobenzene-Induced Ear Edema Reaction in Mouse
Assay: Suppressive action on dinitrofluorobenzene-induced ear edema reaction in mouse (Test Example 1, acetone solvent)
Assay type: in vivo
Conditions: BALE/c mice (female); test compound 1% (w/v %) in acetone applied to front and back of auricle 1 hr before and 3 hr after induction; auricle thickness 24 hr after induction
Experimental: 5-Week to 6-week old BALE/c mice (female, supplied by CHARLES RIVER LABORATORIES JAPAN, INC) were purchased and, after quarantine and habituation, those showing satisfactory body weight increase and free of abnormal appearance were used to start the test from 7 weeks of age. The animals were housed and bred in plastic cages (6 mice per cage) in a breeding chamber set at room temperature 19-25° C., humidity 30-70%, 12 hr illumination per day (7 a.m.-7 p.m.), with free access to a commercially available solid feed and water.
(§1) One day before the test, the abdomen was shaved, and a solution of dinitrofluorobenzene (manufactured by Nacalai Tesque) in acetone (manufactured by Wako Pure Chemical Industries, Ltd.) {concentration 0.5% [weight (w)/volume (v) %]} was applied to the shaved part of BALE/c mice by 100 μL for sensitization. On day 5 after sensitization, a dinitrofluorobenzene-acetone solution [concentration 0.2% (w/v %)] was applied to the front and the back of the auricle by 10 μL each (total 20 μL) to induce reaction. A test compound dissolved in acetone to the concentration of 1% (w/v %) was applied to the front and the back of the auricle 1 hr before and 3 hr after the induction of reaction each by 10 μL (total 20 μL). After the application, the applied part was air-dried by a dryer.
(§2) A group administered with the test compound by coating was taken as a test compound administration group, and a group administered with acetone (solvent) by coating instead of the test compound was taken as a solvent administration group. In addition, a group free of sensitization and induction of reaction and administered with acetone by coating instead of the test compound was taken as a normal group. The thickness of the auricle was measured immediately before induction of reaction and 24 hr after the induction with a dial thickness gauge (manufactured by OZAKI MFG. CO., LTD., G-1A), and the difference between them was taken as ear edema. The ear edema suppressive rate (%) was calculated according to the following formula.

Compared with CCNC(=O)NS(=O)(=O)c1cnn2c(Nc3cc(C)ccc3Cl)c(C(=O)N3CCC(c4ccc(F)cc4)CC3)cnc12 [compound a-14, 7-(2-chloro-5-methylphenylamino)-N-(ethylcarbamoyl)-6-[4-(4-fluorophenyl)piperidine-1-carbonyl]pyrazolo[1,5-a]pyrimidine-3-sulfonamide], CCNC(=O)NS(=O)(=O)c1cnn2c(Nc3ccc(F)cc3C)c(C(=O)N3CCC4(CC3)OCc3ccccc34)cnc12 [compound a-43, 7-(4-fluoro-2-methylphenylamino)-N-(ethylcarbamoyl)-6-[3H-spiro(isobenzofuran-1,4′-piperidine)-1-carbonyl]pyrazolo[1,5-a]pyrimidine-3-sulfonamide] is higher in “ear edema suppressive rate (%)” value: 25% for the first, 40% for the second.

For O=C(NS(=O)(=O)c1cnn2c(Nc3ccccc3Cl)c(C(=O)N3CCC(c4ccccc4)CC3)cnc12)C1CC1 [compound a-6, N-[7-(2-chlorophenylamino)-6-(4-phenylpiperidine-1-carbonyl)pyrazolo[1,5-a]pyrimidin-3-ylsulfonyl]cyclopropanecarboxamide], the “ear edema suppressive rate (%)” value was 30%.

Tested on: Dinitrofluorobenzene-Induced Ear Edema Reaction in Mouse
Assay: Suppressive action on dinitrofluorobenzene-induced ear edema reaction in mouse (Test Example 2, 50% acetone/50% ethanol solvent)
Assay type: in vivo
Conditions: BALE/c mice (female); test compound 1% (w/v %) in 50% acetone/50% ethanol applied to front and back of auricle 1 hr before and 3 hr after induction; auricle thickness 24 hr after induction
Experimental: 5-Week old BALE/c mice (female, supplied by CHARLES RIVER LABORATORIES JAPAN, INC) were purchased and, after quarantine and habituation, those showing satisfactory body weight increase and free of abnormal appearance were used to start the test from 7 weeks of age. The animals were housed and bred in plastic cages (6 mice per cage) in a breeding chamber set at room temperature 19-25° C., humidity 30-70%, 12 hr illumination per day (7 a.m.-7 p.m.), with free access to a commercially available solid feed and water.
as §1, with “dissolved in 50% acetone/50% ethanol (w/v %) to the” for “dissolved in acetone to the”
as §2, with “50% acetone/50% ethanol (w/v %)” for “acetone”

Compared with CCC(=O)NS(=O)(=O)c1cnn2c(Nc3cc(Cl)ccc3Cl)c(C(=O)N3CCC(c4ccc(F)cc4)CC3)cnc12 [compound a-22, N-{7-(2,5-dichlorophenylamino)-6-[4-(4-fluorophenyl)piperidine-1-carbonyl]pyrazolo[1,5-a]pyrimidin-3-ylsulfonyl}propionamide], CONS(=O)(=O)c1cnn2c(Nc3cc(Cl)ccc3Cl)c(C(=O)N3CCC(c4ccc(F)cc4)CC3)cnc12 [compound a-27, 7-(2,5-dichlorophenylamino)-6-[4-(4-fluorophenyl)piperidine-1-carbonyl]-N-methoxypyrazolo[1,5-a]pyrimidine-3-sulfonamide] is higher in “ear edema suppressive rate (%)” value: 16% for the first, 47% for the second.

Compared with CCC(=O)NS(=O)(=O)c1cnn2c(Nc3cc(C)c(F)cc3Cl)c(C(=O)N3CCC(c4ccc(F)cc4)CC3)cnc12 [compound a-40, N-{7-(2-chloro-4-fluoro-5-methylphenylamino)-6-[4-(4-fluorophenyl)piperidine-1-carbonyl]pyrazolo[1,5-a]pyrimidin-3-ylsulfonyl}propionamide], CCC(=O)NS(=O)(=O)c1cnn2c(Nc3cc(C)ccc3Cl)c(C(=O)N3CC4(C3)CN(c3ccc(F)cc3)C4)cnc12 [compound a-60, N-{7-(2-chloro-5-methylphenylamino)-6-[6-(4-fluorophenyl)-2,6-diazaspiro[3,3]heptane-2-carbonyl]pyrazolo[1,5-a]pyrimidin-3-ylsulfonyl}propionamide] is lower in “ear edema suppressive rate (%)” value: 32% for the first, 5% for the second.
